Patent US20230146507A1, “N-PHENYL-3-MERCAPTOPROPANAMIDE DERIVATIVES AS METALLO-BETA-LACTAMASE INHIBITORS FOR THE TREATMENT OF BACTERIAL INFECTIONS” (Helmholtz-Zentrum Für Infektionsforschung GmbH, priority 2020, published 2023)

Assays:
Type in all cases: biochemical
Settings in all cases: Means and SD of at least two independent experiments
NDM-1 = molecular target: T1, NDM-1 (Klebsiella pneumoniae, UniProt C7C422); assay: In vitro inhibition assay (kinetic fluorescence-based activity assay), NDM-1
T1 construct: made in house
Procedure: (§1) Protein expression and purification. The expression of IMP-7, VIM-1, and NDM-1 was performed according to the protocol previously published by Klingler et al. (Klingler, F. M.; Wichelhaus, T. A.; Frank, D.; Cuesta-Bernal, J.; El-Delik, J.; Müller, H. F.; Sjuts, H.; Gottig, S.; Koenigs, A.; Pos, K. M.; et al. Approved Drugs Containing Thiols as Inhibitors of Metallo-β-Lactamases: Strategy to Combat Multidrug-Resistant Bacteria. J. Med. Chem. 2015, 58 (8), 3626-3630. https://doi.org/10.1021/jm501844d) with slight modifications.
(§2) In vitro inhibition assay. Activity assays for NDM-1, VIM-1, VIM-2 and IMP-7 were carried out, as described by Klingler et al. Final protein concentrations were 0.5 nM (NDM-1), 4.0 nM (VIM-1), and 0.1 nM (IMP-7) in a 50 mM HEPES buffer (pH 7.5, 0.01% Triton X-100) Substrate (Fluorocillin™ (Invitrogen, Darmstadt, Germany) was dissolved in assay buffer to a final concentration of 888 nM. Test compounds were dissolved and pre-diluted in DMSO (final concentration: 1%). In a black polystyrol 96-well plate (Corning) an amount of […] of the respective inhibitor solution at different concentrations was incubated with […] of respective protein containing buffer for 30 minutes at room temperature. […] of substrate solution was added. The readout of the emitted fluorescence was started immediately (45 s for 30 cycles) using a Tecan Infinite F200Pro (Tecan Group Ltd; excitation at 495 nm and emission at 525 nm). Blank controls were performed without enzyme. Positive controls were performed with enzyme but without inhibitor. The inhibitory activity of each test compound was measured in three independent experiments. For calculation of IC50 values, data obtained from measurements with eight different inhibitor concentrations were used. For the evaluation of the sigmoidal dose response equation (variable slope with four parameters) GraphPad Prism 5 (GraphPad Software, La Jolla, Calif., USA) was used.

IMP-7 = IMP-7 (Pseudomonas aeruginosa, UniProt Q93AU3); assay: In vitro inhibition assay (kinetic fluorescence-based activity assay), IMP-7
Procedure: as §1, §2

VIM-1 = molecular target: T2, VIM-1 (Pseudomonas aeruginosa, UniProt A0A0F7KYQ8); assay: In vitro inhibition assay (kinetic fluorescence-based activity assay), VIM-1
T2 construct: made in house
Procedure: as §1, §2

T1 sequence (C7C422 29-270, looked up, species assumed): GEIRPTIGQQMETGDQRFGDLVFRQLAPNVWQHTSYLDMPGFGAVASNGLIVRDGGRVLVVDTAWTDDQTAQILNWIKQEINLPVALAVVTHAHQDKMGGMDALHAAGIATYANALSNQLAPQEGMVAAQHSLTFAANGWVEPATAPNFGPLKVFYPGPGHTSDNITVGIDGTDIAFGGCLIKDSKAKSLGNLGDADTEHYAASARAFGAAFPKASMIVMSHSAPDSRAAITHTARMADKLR
IMP-7, sequence (Q93AU3 entry or part of it): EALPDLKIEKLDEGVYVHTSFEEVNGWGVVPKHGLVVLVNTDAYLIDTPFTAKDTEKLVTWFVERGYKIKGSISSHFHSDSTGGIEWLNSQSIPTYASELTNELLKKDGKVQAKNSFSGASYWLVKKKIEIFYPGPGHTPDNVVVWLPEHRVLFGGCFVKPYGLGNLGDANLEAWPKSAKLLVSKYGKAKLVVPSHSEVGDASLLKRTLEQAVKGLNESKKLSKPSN

| Compound | IC50 (NDM-1) [µM] | IC50 (IMP-7) [µM] | IC50 (μM) VIM-1 (VIM-1) | IC50 (VIM-1) [µM] | IC50 (μM) IMP-7 (IMP-7) |
| --- | --- | --- | --- | --- | --- |
| COC(=O)c1ccccc1NC(=O)CCS [HIPS1685] | 1.3 ± 0.2 | 1 ± 0.1 | n.i. | – | – |
| O=C(CCS)Nc1cccc(O)c1 [HIPS1687] | 2.7 ± 0.5 | 1.4 ± 0.2 | – | 0.1 | – |
| CC(=O)c1ccc(NC(=O)CCS)cc1 [HIPS5188] | 1.5 ± 0.3 | 5.5 ± 0.1 | – | 0.4 ± 0.1 | – |
| O=C(CCS)Nc1ccc(O)cc1 [HIPS5190] | 4 ± 1.1 | 3.4 ± 0.7 | – | 0.2 | – |
| CS(=O)(=O)Nc1cccc(NC(=O)CCS)c1 [HIPS5585] | 2.2 ± 0.3 | 1.3 | – | 1.3 | – |
| CS(=O)(=O)Nc1ccccc1NC(=O)CCS [HIPS5654] | 7 ± 0.3 | – | – | 1.9 ± 0.2 | n.i. |

Further compounds by falling IC50 (NDM-1), results first:

| IC50 (NDM-1) [µM] | IC50 (IMP-7) [µM] | IC50 (μM) VIM-1 (VIM-1) | IC50 (VIM-1) [µM] | IC50 (μM) IMP-7 (IMP-7) | Compound |
| --- | --- | --- | --- | --- | --- |
| 2.8 ± 0.1 | 1.1 ± 0.7 | – | 0.1 | – | COC(=O)c1ccc(NC(=O)CCS)cc1 [HIPS5586] |
| 2.5 ± 0.2 | 7.1 ± 1.4 | – | 1.7 ± 0.3 | – | O=C(CCS)Nc1ccc(S(=O)(=O)N2CCOCC2)cc1 [HIPS5659] |
| 2.2 ± 0.4 | 3.3 ± 0.4 | – | 0.2 | – | O=C(CCS)Nc1ccccc1O [HIPS5661] |
